Patent US5256548A, “Antiviral antibiotic BU-4344V” (Bristol-Myers Squibb Company, priority 1992, dated 1993)
In brackets after ≈: the same amount, converted by molar mass.

Columns and labels:
[1] = test system: Herpes Simplex Virus Type I; assay: Plaque reduction assay, herpes simplex virus (Vero cells); format: cell-based, herpes simplex virus type 1
Vero cells [2] = conditions: dye-uptake assay, Vero cells without viral infection, 72 hours
[3] = test system: herpes simplex virus type 1 (KOS strain); conditions: 72 h
Vero cells [4] = assay: Plaque reduction assay, minimal toxic dose (Vero cells); format: cell-based
Protocol: In vitro antiviral activity of BU-4344V was assessed using the herpes simplex virus type 1 (KOS strain) - Vero cell and influenza virus type A (Victoria strain) - Madin Darby canine kidney (MDCK) cell systems by the dye-uptake assay method [Antiviral Research, 3, 223-234 (1986)]. The cell suspension (200 μl ), containing 2×10^4 cells, was inoculated to each well of 96-well microplates and cultured at 37° C. for 48-72 hours under humidified 5% CO2 -95% air environment. The growth medium in each well was replaced with 250 μl of fresh medium (Eagle MEM without serum) containing BU-4344V at various doses, and then 50 μl medium containing approximately 10×TCID50 of the viruses was added to each well. For cytotoxicity tests, the same set of wells, without the viruses, were prepared. After 72 hours of incubation, the degree of inhibition of the viral-induced cytopathic effect and the drug-induced cytotoxicity were determined. […] The antiviral activity of BU-4344V was also determined using a conventional plaque reduction assay method.

[5] = test system: influenza virus type A (Victoria strain); assay: Dye-uptake assay, inhibition of viral-induced cytopathic effect, influenza virus - MDCK cell system; format: cell-based; conditions: MDCK cells, 72 hours
Influenza Virus Type A = assay: Plaque reduction assay, influenza virus (MDCK cells); format: cell-based

| Structure (SMILES) | ID50 [1] [µg/mL] | TD50 (concentration exhibiting 50% cytotoxicity) (Vero cells [2]) [µg/mL] | ID50 (concentration showing 50% inhibition of the cytopathic effect) [3] [µg/mL] | MTD (Minimal Toxic Dose) (Vero cells [4]) [µg/mL] | ID50 (concentration showing 50% inhibition of the cytopathic effect) [5] [µg/mL] | ID50 (Influenza Virus Type A) [µg/mL] |
| --- | --- | --- | --- | --- | --- | --- |
| Nc1nc2c(ncn2COCCO)c(=O)[nH]1 [Acyclovir, reference compound] | 0.25 (≈ 1.11 µM) | > 100 | 0.2 | > 100 | – | – |
| NC(=O)c1ncn([C@@H]2O[C@H](CO)[C@@H](O)[C@H]2O)n1 [Ribavirin, reference compound] | – | – | – | – | 10 | 3.8 (≈ 15.6 µM) |
